Test results published in patent publication US9096499B2, “Compounds for treatment of cell proliferative diseases” (Board of Regents, The University of Texas System, priority 2003, dated 2015).
Entries after “also recorded” stand apart in the source; their conditions may differ.

How the values were obtained:
[1] = system: IFN-α signaling; assay: IFN-α signaling (Stat1) immunoblot in MM-1 cells; format: cell-based; details: 12 and 25 μM, IFN-α 10 min
Experimental: (§1) To examine the effect of newly synthesized AG and WP compounds on cytokine-mediated Stat activation, multiple myeloma (MM-1) cells were pretreated with AG490 or AG1801 at 2.5, 12, and 25 μM concentrations (for 2 hr) before stimulating cells with IL-6 or IFN-α for 10 min. Stat3 and Stat1 expression and activation were examined by immunoblotting.

[2] = system: OCI-My5 cells; assay: Caspase activation and PARP cleavage in OCI-My5 cells; format: cell-based; details: 12.5 and 25 μM
Experimental: To determine whether AG1801 effects caspase activation in MM cells, OCI-My5 cells were treated as described above before cell lysates were examined for casapase activation and PARP cleavage. […] At 12.5 and 25 μM, AG490 was ineffective in caspase activation and PARP clevage in these cells.

[3] = system: MM-1 MM cells; assay: MTT cell growth and survival assay, MM-1 MM cells; format: cell-based; details: for IC50 / Growth and survival of MM1 cells (in words): 72 hours; for IC50: MTT assay, read-out: IC50 (μM) MM1; for Growth and survival of MM1 cells (in words): MTT, FIG. 2A/3A
Experimental: (§2) To determine the effect of AG and WP compounds on MM cell growth/survival, MM cells were incubated with the indicated concentration of AG or WP for 72 hours before cell growth and survival were estimated by MTT assay.
(§3) To determine the effect of AG and WP compounds on MM cell growth/survival MM cells were incubated with the indicated concentration of AG or WP for 72 hours before cell growth and survival were estimated by MTT assay.

[4] = system: MM colonies from bone marrow aspirates of MM patients; assay: Primary MM colony formation in methyl-cellulose; format: cell-based, human; details: 12 μM, 7 to 10 days
Experimental: To determine whether these compounds effect primary MM colony growth bone marrow aspirates from MM patients were partially-purified by magnetic bead separation and analyzed for immunoglobulin heavy-chain gene rearrangement by PCR. Cells were grown as colonies in methyl-cellulose in the presence or absence of AG compound as noted for 7 to 10 days. Control colonies were examined for Ig heavy chain gene rearrangement to confirm the clonal nature of the population.

[5] = system: c-myc; assay: c-myc protein expression by immunoblot in MM cells; format: cell-based; design: key to C-Myc: (inhibition = ↓); (no effect) = —; details: for C-Myc: c-myc downregulation, immunoblot; for Suppression of c-myc protein expression: 1.56-25 μM WP compounds, CHX 0-30 min at much higher concentrations
Experimental: (§4) To determine the effect of compounds on both Stat3 activation and c-myc protein expression MM-1, OCI-My5 and U266 cells were incubated with 25 μM of AG1801, AG490, WP1038, WP1039, WP1051, or WP1052 for 2 hours before cells were stimulated with 2 ng/ml IL-6 for 10 min. Cell lysates were prepared and immunoblotted for p-Stat3, Stat3, c-myc and actin (as a control).
(§5) To determine the temporal effects and mechanism of action of AG490 and AG1801 action on c-myc expression in MM cells, MM-1 cells were incubated with 0, 25, or 50 μM of AG490 or AG1801 and harvested at 30, 60, or 120 min. Lysates were immunoblotted for c-myc or actin as a protein loading control. […] Semi-quantitative PCR was used to measure changes in c-myc mRNA extracted from cells treated for 30 min with AG1801 at 25 μM. GAPDH PCR was used as a control.
These compounds were evaluated for their signal inhibitory and anti-proliferative/apoptotic properties on multiple myeloma, lymphoma and chronic myelogenous leukemia cell lines. WP1015, WP1034, AG1801, and AG490 were tested across a range of concentrations (6,12, and 25 μM) for their ability to inhibit c-myc expression using immunoblots.
These immunoblots tested a range of concentrations (1.56-25 μM for WP compounds) and used β-actin as a control.

[6] = system: c-myc mRNA; assay: Semi-quantitative PCR of c-myc mRNA in MM-1 cells; format: cell-based; details: 25 μM, 30 min
Experimental: as §5

[7] = system: Stat3; assay: IL-6 mediated Stat3 activation (p-Stat3 immunoblot) in MM cells; format: cell-based; design: key to P-Stat 3: (inhibition = ↓); (no effect) = —; details: for P-Stat 3: Stat3 inhibition, immunoblot
Experimental: as §1
as §4, with “control). Both Stat3 activation and c-myc expression were effected by WP and AG compounds.” for “control).”

[8] = system: OCI MM cells; assay: MTT cell growth and survival assay, OCI MM cells; format: cell-based; details: 72 hours; for IC50: MTT assay; for Growth and survival of OCI cells (in words): MTT, FIG. 2B/3B
Experimental: as §2, §3

[9] = system: U266 MM cells; assay: MTT cell growth and survival assay, U266 MM cells; format: cell-based; details: 72 hours; for Growth and survival of U266 cells (in words): MTT, FIG. 2C/3C; for IC50: Homo sapiens, U-266, MTT assay
Experimental: as §2, §3

[10] = system: c-myc/Stat3; assay: Stat3/c-myc inhibitory activity in MM-1 cells (FIG. 7); format: cell-based
From the text: An improved inhibition of c-myc/Stat3 by WP1066, WP1130, and WP1129 was observed (FIG. 7). The compounds were compared with regard to their Stat3/c-myc inhibitory activity in MM-1 cells.

[11] = system: c-myc; assay: c-myc protein immunoblot in LP non-Hodgkin lymphoma cells; format: cell-based; details: for c-myc expression: 3-25 μM
Experimental: Additional cell types were examined for response to treatment with WP1066.
(§6) Further studies were conducted to determine the dose and time dependent effects of these new compounds on IL-6 mediated Stat3 activation, c-myc protein expression and anti-proliferative of LP and other cell types.

[12] = system: Stat3; assay: IL-6 mediated Stat3 activation immunoblot in LP cells; format: cell-based; details: 3-25 μM
Experimental: as §6

[13] = system: human A375 melanoma tumors; assay: A375 melanoma tumors in nude mice; format: in vivo, Swiss nude mice; details: 40 mg/kg i.p. every other day, 8 injections from day 7, to day 21
Experimental: The results of animal studies of human A375 melanoma tumors growing in nude mice, treated with WP1066 after tumors reached a palpable size, are shown in FIG. 8. The following animal model was used to evaluate the anti-tumor and anti-cancer effects of the compounds: on Day 0, A375 cells were suspended to 20×10^6 cells/ml in RPMI 1640 medium. On day 0, 0.2 ml of this suspension containing A375 cells was injected (s.c.) into female Swiss nude mice 6-7 weeks of age. On Day 7, 40 mg/kg of WP1066 was injected (i.p.) into the above mice in a 0.1 ml suspension of DMSO/PEG300 (50/50) on a qd, every other day schedule for 8 injections. Five mice per experimental group were used, including a vehicle (DMSO/PEG300) control group. Animals received 40 mg/kg WP1066 every other day […] for a total of 8 injections. The control group reached maximum tumor burden at day 21, and for this reason the experiment was stopped.

[14] = system: MM-1, Mino, WDT-2, WDT-3, K562, K562-R cell lines; assay: Anti-proliferative/apoptotic action on c-myc overexpressing cell lines (FIG. 5); format: cell-based; details: FIG. 5, incl. Imatinib-resistant K562-R
From the text: The anti-proliferative/apoptotic actions of WP1066 were also examined on cell lines known to overexpress c-myc. […] Thus WP1066 clearly exerts a potent inhibition of cell proliferation and/or survival in multiple cancer cell lines, and WP1066 will be used as a therapeutic.

N#C/C(=C\c1ccc([N+](=O)[O-])cc1)C(=O)NCc1ccccc1 [AG 1801]
Effect on IFN-α signaling [1]: without effecting IFN-α | Caspase activation (caspase 3 and caspase 8) [2]: activated both upstream and downstream caspases | PARP cleavage [2]: increased PARP clevage | IC50 [3]: 7.5 µM | Growth and survival of MM1 cells (in words) [3]: effective in reducing the growth and survival; also recorded: demonstrated increased potency compared to AG490 | Inhibition of MM colony formation [4]: completely inhibited MM colony formation | c-myc expression, temporal effects ([5]; MM-1 cells, 25 and 50 μM, 30, 60, 120 min): rapidly reduced c-myc expression | C-Myc [5]: ↓ | c-myc mRNA expression [6]: minimal effects | Suppression of IL-6 signaling (Stat3 activation) ([7]; MM-1 cells, 2 hr pretreatment, 12 and 25 μM, IL-6 10 min): effective in suppressing IL-6 signaling | P-Stat 3 [7]: ↓ | IC50 [8]: 12 µM | Growth and survival of OCI cells (in words) [8]: effective in reducing the growth and survival; also recorded: demonstrated increased potency compared to AG490 | Growth and survival of U266 cells (in words) [9]: effective in reducing the growth and survival; also recorded: demonstrated increased potency compared to AG490 | IC50 [9]: 9 µM

C[C@@H]1C[C@@H]([C@H](O)CC2CC(=O)NC(=O)C2)C(=O)[C@@H](C)C1 [CHX, cycloheximide, reference compound]
Suppression of c-myc protein expression [5]: did not result in the rapid reduction of c-myc

CCC[C@H](NC(=O)/C(C#N)=C/c1cccc(Br)n1)c1ccccc1 [WP1130]
Inhibition of c-myc/Stat3 [10]: Strong inhibition | IC50 against MM-1 myeloma relative to WP1066 ([3]; FIG. 6): even better than compound WP1066

N#C/C(=C\c1cccc(Br)n1)C(=O)NCc1ccccc1 [WP 1015]
c-myc expression ([11]; LP cells): reduced c-myc expression | IC50 [3]: 1.9 µM | Inhibition of c-myc protein expression ([5]; 6, 12, 25 μM, AG490 up to 50 μM): more active than previously synthesized WP compounds | C-Myc [5]: ↓ | Inhibition of Stat3 phosphorylation ([7]; MM-1 cells): more effective in inhibiting Stat3 phosphorylation | IL-6 mediated Stat3 activation [12]: blocked IL-6 mediated Stat3 activation

C[C@@H](NC(=O)/C(C#N)=C/c1ccc([N+](=O)[O-])cc1)c1ccccc1 [WP 1034]
IC50 [3]: 3.5 µM | Growth and survival of MM1 cells (in words) [3]: effective in reducing the growth and survival; also recorded: demonstrated increased potency compared to AG490 | C-Myc [5]: ↓ | IC50 [8]: 6.3 µM | Growth and survival of OCI cells (in words) [8]: effective in reducing the growth and survival; also recorded: demonstrated increased potency compared to AG490 | Growth and survival of U266 cells (in words) [9]: effective in reducing the growth and survival; also recorded: demonstrated increased potency compared to AG490 | IC50 [9]: 4.5 µM

C[C@@H](NC(=O)/C(C#N)=C/c1ccc([N+](=O)[O-])c(O)c1)c1ccccc1 [WP 1038]
IC50 [3]: 6.2 µM | C-Myc [5]: ↓ | P-Stat 3 [7]: ↓ | IC50 [8]: > 12.5 µM | IC50 [9]: 11.8 µM

C[C@H](NC(=O)/C(C#N)=C/c1ccc([N+](=O)[O-])cc1)c1ccccc1 [WP 1050]
IC50 [3]: 2.1 µM | Growth and survival of MM1 cells (in words) [3]: demonstrated increased potency compared to AG490 | C-Myc [5]: ↓ | IC50 [8]: > 12.5 µM | Growth and survival of OCI cells (in words) [8]: demonstrated increased potency compared to AG490 | Growth and survival of U266 cells (in words) [9]: demonstrated increased potency compared to AG490 | IC50 [9]: 5 µM

C[C@H](NC(=O)/C(C#N)=C/c1ccc([N+](=O)[O-])c(O)c1)c1ccccc1 [WP 1051]
IC50 [3]: 5.5 µM | C-Myc [5]: ↓ | P-Stat 3 [7]: ↓ | IC50 [8]: > 12.5 µM | IC50 [9]: 11.1 µM

C[C@H](NC(=O)/C(C#N)=C/c1ccccn1)c1ccccc1 [WP 1065]
IC50 [3]: 3 µM

C[C@H](NC(=O)/C(C#N)=C/c1cccc(Br)n1)c1ccccc1 [WP 1066]
Inhibition of c-myc/Stat3 [10]: Strong inhibition | c-myc expression ([11]; LP cells): reduced c-myc expression | Downregulation of c-myc protein ([11]; LP cells, 5, 15, 30, 60 min): rapid downregulation of c-myc protein | Reduction in c-myc at shortest incubation ([11]; LP cells, 5 min): strong reduction | IC50 [3]: 1.3 µM | Tumor size / tumor volume in vivo [13]: decrease tumor size; also recorded: reduces tumor volume | Suppression of c-myc protein expression [5]: more active in suppressing c-myc protein expression than WP1015 | C-Myc [5]: ↓ | IL-6 mediated Stat3 activation [12]: blocked IL-6 mediated Stat3 activation; also recorded: slightly better activity than WP1015 | Cell proliferation and/or survival in multiple cancer cell lines [14]: dose-dependent anti-tumor effects; also recorded: effective in reducing cell proliferation

N#C/C(=C\c1cc(O)ccc1[N+](=O)[O-])C(=O)NCc1ccccc1 [WP 1073]
IC50 [3]: > 2.5 µM

N#C/C(=C\c1cccc([N+](=O)[O-])c1)C(=O)NCc1ccccc1 [WP 1074]
IC50 [3]: > 2.5 µM

N#C/C(=C\c1cccnc1)C(=O)NCc1ccccc1 [WP 1075]
IC50 [3]: > 2.5 µM

CN(C)c1ccc(/C=C(\C#N)C(=O)NCc2ccccc2)c([N+](=O)[O-])c1 [WP 1076]
IC50 [3]: > 2.5 µM

N#C/C(=C\c1ccc(Cl)c([N+](=O)[O-])c1)C(=O)NCc1ccccc1 [WP 1077]
IC50 [3]: 2.5 µM
